Several values for one entry are separate records, joined by “and”; a condition that tells them apart may be missing. Equal entries are not always repeated. Toxic doses and inconclusive results are not listed.

The test system of the assay is CD2F1 mice, L1210 leukemia ip, survival T/C. Briefly: NCI In Vivo Anticancer Drug Screen. Data for tumor model L1210 Leukemia (intraperitoneal) in CD2F1 (CDF1) mice. Particulars: higher = longer survival. A digest of the protocol:
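Transplantable tumor in mice; compound-treated vs vehicle-treated groups. Read-out = treated/control ratio of the measured endpoint.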

The mark [1] stands for this setting: endpoint: mean survival time, dose: 100.0 mg/kg/injection, schedule: Q01DX009 (ip), vehicle: saline with Tween-80.
The mark [2] stands for this setting: endpoint: mean survival time, dose: 200.0 mg/kg/injection, schedule: Q01DX009 (ip), vehicle: saline with Tween-80.
Setting [3] is: endpoint: mean survival time, dose: 400.0 mg/kg/injection, schedule: Q01DX009 (ip), vehicle: saline with Tween-80.
Where [4] appears, read: endpoint: mean survival time, dose: 25.0 mg/kg/injection, schedule: Q01DX009 (ip), vehicle: water.
Where [5] appears, read: endpoint: mean survival time, dose: 50.0 mg/kg/injection, schedule: Q01DX009 (ip), vehicle: water.
The mark [6] stands for this setting: endpoint: mean survival time, dose: 100.0 mg/kg/injection, schedule: Q04DX003 (ip), vehicle: saline with Tween-80.
The mark [7] stands for this setting: endpoint: mean survival time, dose: 200.0 mg/kg/injection, schedule: Q04DX003 (ip), vehicle: saline with Tween-80.
Setting [8] is: endpoint: mean survival time, dose: 400.0 mg/kg/injection, schedule: Q04DX003 (ip), vehicle: saline with Tween-80.
The mark [9] stands for this setting: endpoint: mean survival time, dose: 50.0 mg/kg/injection, schedule: Q01DX009 (ip), vehicle: saline with Tween-80.

As to `CC(C)=NNc1nc2c(N)ncnc2n1C1OC(CO)C(O)C1O` (stereo not drawn), the T/C was 97 % of control (endpoint: mean survival time, dose: 12.5 mg/kg/injection, schedule: Q01DX005 (ip), vehicle: distilled water + Tween-80); 96 % of control (endpoint: mean survival time, dose: 12.5 mg/kg/injection, schedule: Q01DX005 (ip), vehicle: water); 97 % of control (endpoint: mean survival time, dose: 25.0 mg/kg/injection, schedule: Q01DX005 (ip), vehicle: distilled water + Tween-80); 94 % of control (endpoint: mean survival time, dose: 25.0 mg/kg/injection, schedule: Q01DX005 (ip), vehicle: water); 97 % of control (endpoint: mean survival time, dose: 50.0 mg/kg/injection, schedule: Q01DX005 (ip), vehicle: distilled water + Tween-80); 99 % of control (endpoint: mean survival time, dose: 50.0 mg/kg/injection, schedule: Q01DX005 (ip), vehicle: water). For the same compound, the T/C by setting is: (endpoint: mean survival time, dose: 100.0 mg/kg/injection, schedule: Q01DX005 (ip), vehicle: distilled water + Tween-80) 97 % of control; (endpoint: mean survival time, dose: 100.0 mg/kg/injection, schedule: Q01DX005 (ip), vehicle: water) 99 % of control; (endpoint: mean survival time, dose: 200.0 mg/kg/injection, schedule: Q01DX005 (ip), vehicle: distilled water + Tween-80) 100 % of control; (endpoint: mean survival time, dose: 200.0 mg/kg/injection, schedule: Q01DX005 (ip), vehicle: water) 97 % of control.
In the case of `CCOC(=O)C(=CN1CCCCC1)C(=O)OCC`, the T/C is, setting by setting: under setting [1], 92 % of control; under setting [2], 94 % of control; under setting [3], 96 % of control.
Take `CNNCc1ccc(C(=O)NC(C)C)cc1`: the T/C is, setting by setting: (endpoint: mean survival time, dose: 3.13 mg/kg/injection, schedule: Q01DX010 (ip), vehicle: saline) 96 % of control; (endpoint: mean survival time, dose: 6.25 mg/kg/injection, schedule: Q01DX010 (ip), vehicle: saline) 106 % of control; (endpoint: mean survival time, dose: 6.25 mg/kg/injection, schedule: Q01DX010 (sc), vehicle: saline) 103 % of control; (endpoint: mean survival time, dose: 12.5 mg/kg/injection, schedule: Q01DX010 (ip), vehicle: saline) 108 % of control; (endpoint: mean survival time, dose: 25.0 mg/kg/injection, schedule: Q01DX010 (oral), vehicle: saline) 120 % of control; (endpoint: mean survival time, dose: 25.0 mg/kg/injection, schedule: Q01DX010 (sc), vehicle: saline) 116 % of control. Also, the T/C runs as follows: (endpoint: mean survival time, dose: 29.7 mg/kg/injection, schedule: Q01DX009 (ip), vehicle: saline) 110 % of control; (endpoint: mean survival time, dose: 38.0 mg/kg/injection, schedule: Q03DX004 (ip), vehicle: saline) 100 % of control; (endpoint: mean survival time, dose: 50.0 mg/kg/injection, schedule: Q01DX010 (sc), vehicle: saline) 120 % of control; (endpoint: mean survival time, dose: 100.0 mg/kg/injection, schedule: Q04DX003 (ip), vehicle: saline) 112 % of control; (endpoint: mean survival time, dose: 133.0 mg/kg/injection, schedule: Q01DX009 (ip), vehicle: saline) 159 % of control and 170 % of control; (endpoint: mean survival time, dose: 150.0 mg/kg/injection, schedule: Q03DX004 (ip), vehicle: saline) 108 % of control. Besides, the T/C (endpoint: mean survival time, dose: 200.0 mg/kg/injection, schedule: Q01DX007 (ip), vehicle: saline) was 179 % of control.
As to `O=C(CCl)NCCCCNC(=O)CCl`, the T/C is 101 % of control (endpoint: mean survival time, dose: 100.0 mg/kg/injection, schedule: Q01DX001 (ip), vehicle: saline); 98 % of control (endpoint: mean survival time, dose: 200.0 mg/kg/injection, schedule: Q01DX001 (ip), vehicle: saline); 100 % of control (endpoint: mean survival time, dose: 400.0 mg/kg/injection, schedule: Q01DX001 (ip), vehicle: saline).
Regarding `CC(C)(C)C1=C(N=[N+]=[N-])C(=O)C(C(C)(C)C)=C(N=[N+]=[N-])C1=O`, the T/C runs as follows: (endpoint: mean survival time, dose: 100.0 mg/kg/injection, schedule: Q01DX001 (ip), vehicle: other) 104 % of control; (endpoint: mean survival time, dose: 200.0 mg/kg/injection, schedule: Q01DX001 (ip), vehicle: other) 104 % of control; (endpoint: mean survival time, dose: 400.0 mg/kg/injection, schedule: Q01DX001 (ip), vehicle: other) 101 % of control.
For the compound `NN(C(=O)c1ccccc1)C1CCCCC1`, the T/C under setting [1] was 97 % of control.
Turning to `Cc1cccc(N=Cc2ccc3c(c2)OCO3)c1`, the T/C (endpoint: mean survival time, dose: 100.0 mg/kg/injection, schedule: Q04DX003 (ip), vehicle: Klucel (hydroxypropylcellulose) (HPC)) is 100 % of control and the T/C (endpoint: mean survival time, dose: 200.0 mg/kg/injection, schedule: Q04DX003 (ip), vehicle: Klucel (hydroxypropylcellulose) (HPC)) was 111 % of control.
With `COc1cc2cccc(N)c2cc1OC`, the T/C runs as follows: (endpoint: mean survival time, dose: 12.5 mg/kg/injection, schedule: Q01DX009 (ip), vehicle: water) 95 % of control; under setting [4], 95 % of control; under setting [5], 95 % of control.
`Nc1ccc(-c2ccc(N)c(Cl)c2)cc1Cl`: the T/C is 105 % of control (endpoint: mean survival time, dose: 100.0 mg/kg/injection, schedule: Q01DX009 (ip), vehicle: Klucel (hydroxypropylcellulose) (HPC)); 103 % of control (endpoint: mean survival time, dose: 200.0 mg/kg/injection, schedule: Q01DX009 (ip), vehicle: Klucel (hydroxypropylcellulose) (HPC)); 100 % of control (endpoint: mean survival time, dose: 400.0 mg/kg/injection, schedule: Q01DX009 (ip), vehicle: Klucel (hydroxypropylcellulose) (HPC)).
In the case of `CC(C)(C)c1ccc(OS(=O)(=O)c2cccc([N+](=O)[O-])c2)cc1`, the T/C reads like this: under setting [1], 86 % of control; under setting [2], 102 % of control; under setting [3], 94 % of control.
On to `C1CCC2(CC1)SSC1(CCCCC1)S2`, for which the T/C is 108 % of control (endpoint: mean survival time, dose: 100.0 mg/kg/injection, schedule: Q01DX009 (ip), vehicle: other); 100 % of control (endpoint: mean survival time, dose: 200.0 mg/kg/injection, schedule: Q01DX009 (ip), vehicle: other); 110 % of control (endpoint: mean survival time, dose: 400.0 mg/kg/injection, schedule: Q01DX009 (ip), vehicle: other).
Regarding `CCOP(=O)(OCC)/C(C#N)=C\c1ccc(N(C)C)cc1`, the T/C is, setting by setting: under setting [6], 101 % of control; under setting [7], 95 % of control; under setting [8], 98 % of control.
`CCC(=O)Nc1ncc([N+](=O)[O-])s1`: the T/C is 94 % of control under setting [9] and 100 % of control under setting [1].
As for `CCOC(=O)CCC(=O)CC(O)(C(F)(F)F)C(F)(F)Cl` (stereo not drawn), the T/C reads like this: (endpoint: mean survival time, dose: 100.0 mg/kg/injection, schedule: Q01DX009 (ip), vehicle: saline) 104 % of control; under setting [6], 86 % of control; (endpoint: mean survival time, dose: 200.0 mg/kg/injection, schedule: Q01DX009 (ip), vehicle: saline) 98 % of control; under setting [7], 103 % of control; (endpoint: mean survival time, dose: 400.0 mg/kg/injection, schedule: Q01DX009 (ip), vehicle: saline) 107 % of control; under setting [8], 96 % of control.
In the case of `CCOc1ccc(CCN2CC34C=CC(O3)C(C(=O)O)C4C2=O)cc1OC` (stereo not drawn), the T/C is 95 % of control (endpoint: mean survival time, dose: 100.0 mg/kg/injection, schedule: Q04DX002 (ip), vehicle: saline with Tween-80); 95 % of control (endpoint: mean survival time, dose: 200.0 mg/kg/injection, schedule: Q04DX002 (ip), vehicle: saline with Tween-80); 91 % of control (endpoint: mean survival time, dose: 400.0 mg/kg/injection, schedule: Q04DX002 (ip), vehicle: saline with Tween-80).
For `c1ccc2[nH]c(CN(CCN(Cc3nc4ccccc4[nH]3)Cc3nc4ccccc4[nH]3)Cc3nc4ccccc4[nH]3)nc2c1`, the T/C is 100 % of control (endpoint: median survival time, dose: 3.12 mg/kg/injection, schedule: Q01DX005 (ip), vehicle: DMSO) and 100 % of control (endpoint: median survival time, dose: 6.25 mg/kg/injection, schedule: Q01DX005 (ip), vehicle: DMSO).
Consider `COc1cc2ccc(/C=C/C(=O)c3ccc4c(c3)OCO4)cc2cc1OC`, for which the T/C by setting is: under setting [4], 98 % of control; under setting [5], 91 % of control; (endpoint: mean survival time, dose: 100.0 mg/kg/injection, schedule: Q01DX009 (ip), vehicle: water) 88 % of control; (endpoint: mean survival time, dose: 200.0 mg/kg/injection, schedule: Q01DX009 (ip), vehicle: water) 90 % of control; (endpoint: mean survival time, dose: 400.0 mg/kg/injection, schedule: Q01DX009 (ip), vehicle: water) 88 % of control.
Take `O=c1oc(-c2cc([N+](=O)[O-])ccc2Cl)nc2ccccc12`: the T/C is, setting by setting: under setting [9], 95 % of control; under setting [1], 90 % of control; under setting [2], 95 % of control.
Take `Cc1ccc(C(C)C)c(OCCN)c1`: the T/C reads like this: (endpoint: mean survival time, dose: 25.0 mg/kg/injection, schedule: Q04DX002 (ip), vehicle: saline) 94 % of control; (endpoint: mean survival time, dose: 50.0 mg/kg/injection, schedule: Q04DX002 (ip), vehicle: saline) 97 % of control; (endpoint: mean survival time, dose: 100.0 mg/kg/injection, schedule: Q04DX002 (ip), vehicle: saline) 93 % of control and 97 % of control.
For the compound `Cc1cc([N+](=O)[O-])ccc1S(=O)(=O)F`, the T/C (endpoint: mean survival time, dose: 25.0 mg/kg/injection, schedule: Q04DX003 (ip), vehicle: saline with Tween-80) is 95 % of control; the T/C (endpoint: mean survival time, dose: 50.0 mg/kg/injection, schedule: Q04DX003 (ip), vehicle: saline with Tween-80) is 98 % of control; the T/C under setting [6] is 98 % of control.
In the case of `O=C(C[n+]1ccccc1)N/N=C/c1ccc(Cl)cc1`, under setting [1], the T/C is 107 % of control.
